What is called Kd is the constant that tells how readily two partners part at equilibrium. Low values mean higher affinity, high ones lower affinity.

Where a chain is given by its changes, count along the chain named.

Holding throughout (experiment): intrinsic tryptophan fluorescence quenching
Holding throughout (assay type): binding

Assay [1] has as its target T1, BjPutA (proline utilization A) (Bradyrhizobium diazoefficiens, UniProt Q89E26, D779A).
T1 sequence (Q89E26 1-999 D779A): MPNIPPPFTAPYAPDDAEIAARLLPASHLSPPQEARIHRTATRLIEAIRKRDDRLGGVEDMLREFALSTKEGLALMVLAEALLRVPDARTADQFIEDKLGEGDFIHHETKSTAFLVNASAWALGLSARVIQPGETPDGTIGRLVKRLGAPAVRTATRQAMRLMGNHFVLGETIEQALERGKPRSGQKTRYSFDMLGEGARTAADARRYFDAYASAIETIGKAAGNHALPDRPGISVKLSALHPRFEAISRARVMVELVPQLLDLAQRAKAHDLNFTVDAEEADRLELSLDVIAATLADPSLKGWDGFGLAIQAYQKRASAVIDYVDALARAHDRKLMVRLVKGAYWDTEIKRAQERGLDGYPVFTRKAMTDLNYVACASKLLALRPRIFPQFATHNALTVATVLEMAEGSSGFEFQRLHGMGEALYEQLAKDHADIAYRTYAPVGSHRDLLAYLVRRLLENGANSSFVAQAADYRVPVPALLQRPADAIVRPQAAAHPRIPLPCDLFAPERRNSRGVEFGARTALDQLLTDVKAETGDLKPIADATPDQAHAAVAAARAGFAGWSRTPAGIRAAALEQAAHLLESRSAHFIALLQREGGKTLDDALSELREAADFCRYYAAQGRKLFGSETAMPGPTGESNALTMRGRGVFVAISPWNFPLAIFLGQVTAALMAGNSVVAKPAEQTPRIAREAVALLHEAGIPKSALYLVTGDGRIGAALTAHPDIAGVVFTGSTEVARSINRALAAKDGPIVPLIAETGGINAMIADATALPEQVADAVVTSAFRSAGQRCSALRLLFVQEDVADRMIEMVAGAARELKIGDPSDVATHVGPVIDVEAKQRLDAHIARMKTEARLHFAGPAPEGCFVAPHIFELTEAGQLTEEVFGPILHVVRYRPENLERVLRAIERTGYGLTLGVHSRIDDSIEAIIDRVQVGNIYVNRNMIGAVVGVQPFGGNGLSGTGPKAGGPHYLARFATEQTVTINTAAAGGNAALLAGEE

Assay [2] addresses T2, BjPutA (proline utilization A) (Bradyrhizobium diazoefficiens, UniProt Q89E26, D778Y).
T2 sequence (Q89E26 1-999 D778Y): T1 sequence (Q89E26 1-999 D779A) with D778Y, A779D

Assay [3] concerns the target T3, BjPutA (proline utilization A) (Bradyrhizobium diazoefficiens, UniProt Q89E26, T348Y).
T3 sequence (Q89E26 1-999 T348Y): T1 sequence (Q89E26 1-999 D779A) with T348Y, A779D

Take `NC(=O)c1ccc[n+]([C@@H]2O[C@H](COP(=O)(O)OP(=O)(O)OC[C@H]3O[C@@H](n4cnc5c(N)ncnc54)[C@H](O)[C@@H]3O)[C@@H](O)[C@H]2O)c1` [NAD^+]: the values for the equilibrium dissociation constant (Kd) in assay [1], in assay [2] and in assay [3] were 640 ± 50 nM, 670 ± 40 nM and 750 ± 60 nM, respectively.

These data come from paper PMC4131897 (Biochemistry, 2014).
